Measurements reported in US7902238B2, “2-aminooxazolines as TAAR1 ligands” (Hoffmann-La Roche Inc., priority 2007, dated 2011).
pKi: −log10 of the molar value.

Tests used:
rat TAAR1 = rat TAAR1 (Rattus norvegicus, UniProt Q923Y9); experiment: Radioligand binding on membranes of HEK293 cells stably expressing rat TAAR1
mouse TAAR1 = mouse TAAR1 (Mus musculus, UniProt Q923Y8); experiment: Radioligand binding on membranes of HEK293 cells stably expressing mouse TAAR1
Chain of mouse TAAR1 (Q923Y8 whole entry): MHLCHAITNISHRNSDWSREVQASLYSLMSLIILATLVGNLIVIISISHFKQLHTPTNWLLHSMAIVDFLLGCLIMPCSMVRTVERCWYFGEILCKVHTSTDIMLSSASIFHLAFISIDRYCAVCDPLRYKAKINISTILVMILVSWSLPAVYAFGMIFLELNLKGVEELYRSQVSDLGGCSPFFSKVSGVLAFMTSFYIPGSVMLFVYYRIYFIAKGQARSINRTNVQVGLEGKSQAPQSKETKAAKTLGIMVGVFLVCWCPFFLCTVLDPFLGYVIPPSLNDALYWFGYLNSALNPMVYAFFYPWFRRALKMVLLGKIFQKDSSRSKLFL

Chain of rat TAAR1 (Q923Y9 whole entry): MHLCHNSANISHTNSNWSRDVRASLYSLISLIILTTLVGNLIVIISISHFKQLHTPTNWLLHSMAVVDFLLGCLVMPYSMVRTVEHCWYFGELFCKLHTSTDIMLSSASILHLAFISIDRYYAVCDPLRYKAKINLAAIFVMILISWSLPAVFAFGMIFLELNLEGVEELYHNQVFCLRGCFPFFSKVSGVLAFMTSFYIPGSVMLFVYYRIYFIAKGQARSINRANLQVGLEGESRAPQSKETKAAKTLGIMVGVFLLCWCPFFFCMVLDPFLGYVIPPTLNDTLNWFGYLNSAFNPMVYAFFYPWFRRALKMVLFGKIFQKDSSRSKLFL

pKi (rat TAAR1)	pKi (mouse TAAR1)	SMILES
8.28	8.54	CCN(C[C@@H]1COC(N)=N1)c1ccc2ccccc2c1 [Example 163, (R)-4-[(Ethyl-naphthalen-2-yl-amino)-methyl]-4,5-dihydro-oxazol-2-ylamine]
8.68	8.77	CN(C[C@@H]1COC(N)=N1)c1ccc(Cl)c(Cl)c1 [Example 157, (R)-4-{[(3,4-Dichloro-phenyl)-methyl-amino]-methyl}-4,5-dihydro-oxazol-2-ylamine]
4.29	–	CCc1ccc(N(CC)C[C@H]2COC(N)=N2)cc1 [Example 94, (S)-4-{[Ethyl-(4-ethyl-phenyl)-amino]-methyl}-4,5-dihydro-oxazol-2-ylamine]
8.82	–	CCN(C[C@H]1COC(N)=N1)c1ccc(Cl)cc1F [Example 95, (S)-4-{[(4-Chloro-2-fluoro-phenyl)-ethyl-amino]-methyl}-4,5-dihydro-oxazol-2-ylamine]
7.23	8.22	CCN(C[C@H]1COC(N)=N1)c1ccccc1Cl [Example 111, (S)-4-{[(2-Chloro-phenyl)-ethyl-amino]-methyl}-4,5-dihydro-oxazol-2-ylamine]
8.01	8.29	CCN(C[C@@H]1COC(N)=N1)c1cc(F)cc(C(F)(F)F)c1 [Example 167, (R)-4-{[Ethyl-(3-fluoro-5-trifluoromethyl-phenyl)-amino]-methyl}-4,5-dihydro-oxazol-2-ylamine]
–	9.40	CN(C[C@H]1COC(N)=N1)c1ccc2ccccc2c1 [Example 77, (S)-4-[(Methyl-naphthalen-2-yl-amino)-methyl]-4,5-dihydro-oxazol-2-ylamine]
8.85	8.28	CC(C)N(C[C@@H]1COC(N)=N1)c1ccc(Cl)c(Cl)c1 [Example 159, (R)-4-{[(3,4-Dichloro-phenyl)-isopropyl-amino]-methyl}-4,5-dihydro-oxazol-2-ylamine]
8.32	8.09	CCN(C[C@H]1COC(N)=N1)c1ccc(F)cc1F [Example 145, (S)-4-{[(2,4-Difluoro-phenyl)-ethyl-amino]-methyl}-4,5-dihydro-oxazol-2-ylamine]
7.73	8.39	CCN(C[C@H]1COC(N)=N1)c1cccc(-c2cnco2)c1 [Example 106, (S)-4-{[Ethyl-(3-oxazol-5-yl-phenyl)-amino]-methyl}-4,5-dihydro-oxazol-2-ylamine]
7.83	8.41	CCN(C[C@H]1COC(N)=N1)c1ccccc1F [Example 107, (S)-4-{[Ethyl-(2-fluoro-phenyl)-amino]-methyl}-4,5-dihydro-oxazol-2-ylamine]
4.43	–	CCc1cccc(N(CC)C[C@H]2COC(N)=N2)c1 [Example 92, (S)-4-{[Ethyl-(3-ethyl-phenyl)-amino]-methyl}-4,5-dihydro-oxazol-2-ylamine]
8.70	8.96	COc1cc(N(C)C[C@H]2COC(N)=N2)ccc1F [Example 40, (S)-4-{[(4-Fluoro-3-methoxy-phenyl)-methyl-amino]-methyl}-4,5-dihydro-oxazol-2-ylamine]
9.00	9.00	CCN(C[C@H]1COC(N)=N1)c1ccccc1 [Example 3, (S)-4-[(Ethyl-phenyl-amino)-methyl]-4,5-dihydro-oxazol-2-ylamine]
9.22	7.54	NC1=N[C@@H](CN(Cc2ccccc2)c2ccc(Cl)cc2)CO1 [Example 55, (S)-4-[{Benzyl-(4-chloro-phenyl)-amino]-methyl}-4,5-dihydro-oxazol-2-ylamine]
7.20	8.42	CN(C[C@H]1COC(N)=N1)c1cccc(-c2cnco2)c1 [Example 105, (S)-4-{[Methyl-(3-oxazol-5-yl-phenyl)-amino]-methyl}-4,5-dihydro-oxazol-2-ylamine]
8.52	8.57	CN(C[C@H]1COC(N)=N1)c1ccc(Cl)cc1F [Example 100, (S)-4-{[(4-Chloro-2-fluoro-phenyl)-methyl-amino]-methyl}-4,5-dihydro-oxazol-2-ylamine]
8.92	8.80	CCN(C[C@@H]1COC(N)=N1)c1ccc(Cl)cc1 [Example 126, (R)-4-{[(4-Chloro-phenyl)-ethyl-amino]-methyl}-4,5-dihydro-oxazol-2-ylamine]
8.72	8.89	CN(C[C@H]1COC(N)=N1)c1ccc(Br)cc1 [Example 31, (S)-4-{[(4-Bromo-phenyl)-methyl-amino]-methyl}-4,5-dihydro-oxazol-2-ylamine]
8.80	8.39	CCN(C[C@@H]1COC(N)=N1)c1ccc(F)c(OC)c1 [Example 139, (R)-4-{[Ethyl-(4-fluoro-3-methoxy-phenyl)-amino]-methyl}-4,5-dihydro-oxazol-2-ylamine]
7.80	8.34	NC1=N[C@@H](CNc2ccc(C(F)(F)F)c(F)c2)CO1 [Example 127, (S)-4-[(3-Fluoro-4-trifluoromethyl-phenylamino)-methyl]-4,5-dihydro-oxazol-2-ylamine]
9.70	8.66	CCN(C[C@H]1COC(N)=N1)c1ccc(Cl)c(Cl)c1 [Example 33, (S)-4-{[(3,4-Dichloro-phenyl)-ethyl-amino]-methyl}-4,5-dihydro-oxazol-2-ylamine]
9.40	8.66	CCN(C[C@@H]1COC(N)=N1)c1ccc(Cl)c(Cl)c1 [Example 158, (R)-4-{[(3,4-Dichloro-phenyl)-ethyl-amino]-methyl}-4,5-dihydro-oxazol-2-ylamine]
8.96	7.58	COc1cc(N(Cc2ccccc2)C[C@H]2COC(N)=N2)ccc1F [Example 42, (S)-4-{[Benzyl-(4-fluoro-3-methoxy-phenyl)-amino]-methyl}-4,5-dihydro-oxazol-2-ylamine]
9.05	7.73	NC1=N[C@@H](CN(Cc2ccccc2)c2ccc(F)cc2)CO1 [Example 53, (S)-4-{[Benzyl-(4-fluoro-phenyl)-amino]-methyl}-4,5-dihydro-oxazol-2-ylamine]
8.14	8.49	NC1=N[C@@H](CNc2ccc(F)cc2F)CO1 [Example 152, (S)-4-[(2,4-Difluoro-phenylamino)-methyl]-4,5-dihydro-oxazol-2-ylamine]
8.72	9.05	CCN(C[C@@H]1COC(N)=N1)c1ccccc1 [Example 1, (R)-4-[(Ethyl-phenyl-amino)-methyl]-4,5-dihydro-oxazol-2-ylamine]
7.94	8.33	CN(C[C@@H]1COC(N)=N1)c1ccc(F)cc1 [Example 128, (R)-4-{[(4-Fluoro-phenyl)-methyl-amino]-methyl}-4,5-dihydro-oxazol-2-ylamine]
9.00	–	CCN(C[C@H]1COC(N)=N1)c1cccc(Cl)c1 [Example 83, (S)-4-{[(3-Chloro-phenyl)-ethyl-amino]-methyl}-4,5-dihydro-oxazol-2-ylamine]

SMILES	pKi (rat TAAR1)	pKi (mouse TAAR1)
NC1=N[C@@H](CNc2cccc(Cl)c2)CO1 [Example 87, (S)-4-[(3-Chloro-phenylamino)-methyl]-4,5-dihydro-oxazol-2-ylamine]	8.14	–
NC1=N[C@@H](CNc2ccc(C(F)(F)F)cc2)CO1 [Example 132, (S)-4-[(4-Trifluoromethyl-phenylamino)-methyl]-4,5-dihydro-oxazol-2-ylamine]	7.61	8.33
